Laboratory results reported in US9388148B2, “Acylaminocycloalkyl compounds suitable for treating disorders that respond to modulation of dopamine D3 receptor” (AbbVie Deutschland GmbH & Co. KG, priority 2013, dated 2016).

Columns and labels:
[1] = target: T1, human dopamine D2L receptors (long isoform) (Homo sapiens, UniProt P14416); assay: Dopamine D2L receptor binding ([125I]iodospiperone displacement); conditions: selectivity ratio, human D2L vs human D3 binding
T1 construct: expressed in transfected cells; host or cells: HEK-293
T1 sequence (P14416 whole entry, canonical isoform): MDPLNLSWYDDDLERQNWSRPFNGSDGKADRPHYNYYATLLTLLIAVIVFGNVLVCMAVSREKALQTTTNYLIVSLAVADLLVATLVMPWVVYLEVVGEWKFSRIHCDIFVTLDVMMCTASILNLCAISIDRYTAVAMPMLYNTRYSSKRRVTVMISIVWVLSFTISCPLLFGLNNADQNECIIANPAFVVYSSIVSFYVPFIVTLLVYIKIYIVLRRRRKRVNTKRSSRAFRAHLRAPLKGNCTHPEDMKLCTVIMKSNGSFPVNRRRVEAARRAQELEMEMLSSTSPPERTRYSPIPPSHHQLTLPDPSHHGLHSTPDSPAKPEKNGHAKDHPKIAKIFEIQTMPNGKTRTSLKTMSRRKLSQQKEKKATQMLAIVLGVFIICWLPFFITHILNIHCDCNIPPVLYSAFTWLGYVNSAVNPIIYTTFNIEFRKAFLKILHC
Protocol: The substance to be tested was either dissolved in methanol/Chremophor® (BASF SE) or in dimethyl sulfoxide and then diluted with water to the desired concentration.
Each assay mixture was run in triplicate. • The incubation buffer contained 50 mM tris, 120 mM NaCl, 5 mM KCl, 2 mM CaCl2, 2 mM MgCl2 and 0.1% bovine serum albumin, 10 μM quinolone and 0.1% ascorbic acid (prepared fresh daily). […] Each assay mixture was run in triplicate. • The incubation buffer contained 50 mM tris, 120 mM NaCl, 5 mM KCl, 2 mM CaCl2, 2 mM MgCl2 and 0.1% bovine serum albumin. The buffer was adjusted to pH 7.4 with HCl. c) Measurement and analysis: • After having been incubated at 25° C. for 60 minutes, the assay mixtures were filtered through a Whatman GF/B glass fiber filter under vacuum using a cell col-lecting device. The filters were transferred to scintillation viols using a filter transfer system. After 4 ml of Ultima Gold® (Packard) have been added, the samples were shaken for one hour and the radioactivity was then counted in a Beta-Counter (Packard, Tricarb 2000 or 2200CA).

[2] = Determination of the microsomal half-life / microsomal clearance; format: in vitro ADME; conditions: pH 7.4; human liver microsomes, 0.5 μM test substance, 0.25 mg protein/ml, NADPH, 37° C.; read-out: Human mCl (mikrosomal clearance)
Protocol: The metabolic stability of the compounds of the invention was determined in the following assay.
The test substances were incubated in a concentration of 0.5 μM as follows:
0.5 μM test substance are preincubated together with liver microsomes from different species (from rat, human or other species) (0.25 mg of microsomal protein/ml) in 0.05 M potassium phosphate buffer of pH 7.4 in microtiter plates at 37° C. for 5 min. The reaction is started by adding NADPH (1 mg/mL). After 0, 5, 10, 15, 20 and 30 min, 50 μl aliquots are removed, and the reaction is immediately stopped and cooled with the same volume of acetonitrile. The samples are frozen until analyzed. The remaining concentration of undegraded test substance is determined by MSMS. The half-life (T1/2) is determined from the gradient of the signal of test substance/unit time plot, it being possible to calculate the half-life of the test substance, assuming first order kinetics, from the decrease in the concentration of the compound with time. The microsomal clearance (mC1) is calculated from mC1=1n2/T1/2/(content of microsomal protein in mg/ml)×1000 [ml/min/mg] (modified from references: Di, The Society for Biomoleculur Screening, 2003, 453-462; Obach, DMD, 1999 vol 27. N 11, 1350-1359).

Row | SMILES | D2/D3, Ki (D2L)/Ki (D3) [1] | microsomal CLint at 0.5 μM [2] [µL/min/mg]
1 | COCCc1cc(N2CCN(CCC3CCC(NC(=O)C4CCC(O)CC4)CC3)C[C@H]2C)nc(C(C)(C)C)n1 (stereo partly drawn) [Compound 33, N-[4-[2-[(3R)-4-[2-tert-butyl-6-(2-methoxyethyl)pyrimidin-4-yl]-3-methyl-piperazin-1-yl]ethyl]cyclohexyl]-4-hydroxy-cyclohexanecarboxamide] | +++ (+++ >50) | 20 to 120
2 | COCCc1cc(N2CCN(CC[C@H]3CC[C@H](NC(=O)C4CC(O)(C(F)(F)F)C4)CC3)CC2)nc(C(C)(C)C)n1 (relative stereo) [Compound 25, N-[trans-4-[2-[4-[2-tert-butyl-6-(2-methoxyethyl)pyrimidin-4-yl]piperazin-1-yl]ethyl]cyclohexyl]-3-hydroxy-3-(trifluoromethyl)cyclobutanecarboxamide] | ++ (++ >20) | > 120
3 | COCCc1cc(N2CCN(CC[C@H]3CC[C@@H](NC(=O)[C@H]4CC[C@H](O)CC4)CC3)CC2)nc(C(C)(C)C)n1 [Compound 3, trans-N-[cis-4-[2-[4-[2-tert-butyl-6-(2-methoxyethyl)pyrimidin-4-yl]piperazin-1-yl]ethyl]cyclohexyl]-4-hydroxy-cyclohexanecarboxamide] | ++ (++ >20) | 20 to 120
4 | CC(C)(C)c1nc(C2CCC2)cc(N2CCN(CC[C@H]3CC[C@H](NC(=O)[C@H]4C[C@H](O)C4)CC3)CC2)n1.O=C(O)C(F)(F)F [Compound 38, trans-N-[trans-4-[2-[4-(2-tert-butyl-6-cyclobutyl-pyrimidin-4-yl)piperazin-1-yl]ethyl]cyclohexyl]-3-hydroxy-cyclobutanecarboxamide; 2,2,2-trifluoroacetic acid] | ++ (++ >20) | < 20
5 | CC(C)(C)c1nc(N2CCN(CC[C@H]3CC[C@@H](NC(=O)[C@H]4CC[C@H](O)CC4)CC3)CC2)cc(C(F)(F)F)n1 [Compound 23, Trans-N-[cis-4-[2-[4-[2-tert-butyl-6-(trifluoromethyl)pyrimidin-4-yl]piperazin-1-yl]ethyl]cyclohexyl]-4-hydroxy-cyclohexanecarboxamide] | +++ (+++ >50) | 20 to 120
6 | CC(C)c1cc(N2CCN(CC[C@H]3CC[C@H](NC(=O)[C@H]4CC[C@H](O)CC4)CC3)CC2)nc(C(C)(C)C)n1 [Compound 32, Trans-N-[trans-4-[2-[4-(2-tert-butyl-6-isopropyl-pyrimidin-4-yl)piperazin-1-yl]ethyl]cyclohexyl]-4-hydroxy-cyclohexanecarboxamide] | ++ (++ >20) | 20 to 120
7 | CC(C)(C)c1nc(C2CCC2)cc(N2CCN(CC[C@H]3C[C@H](NC(=O)[C@H]4CC[C@H](O)CC4)C3)CC2)n1 [Compound 9, Trans-N-[trans-3-[2-[4-(2-tert-butyl-6-cyclobutyl-pyrimidin-4-yl)piperazin-1-yl]ethyl]cyclobutyl]-4-hydroxy-cyclohexanecarboxamide] | +++ (+++ >50) | 20 to 120
8 | COCCc1cc(N2CCN(CC[C@H]3CC[C@H](NC(=O)[C@H]4CC[C@H](OC)CC4)CC3)CC2)nc(C(C)(C)C)n1 [Compound 24, trans-N-[trans-4-[2-[4-[2-tert-butyl-6-(2-methoxyethyl)pyrimidin-4-yl]piperazin-1-yl]ethyl]cyclohexyl]-4-methoxy-cyclohexanecarboxamide] | ++ (++ >20) | > 120
9 | COCCc1cc(N2CCN(CC[C@H]3CC[C@H](NC(=O)[C@H]4C[C@@H](O)C4)CC3)CC2)nc(C(C)(C)C)n1 [Compound 18, cis-N-[trans-4-[2-[4-[2-tert-butyl-6-(2-methoxyethyl)pyrimidin-4-yl]piperazin-1-yl]ethyl]cyclohexyl]-3-hydroxy-cyclobutanecarboxamide] | +++ (+++ >50) | 20 to 120
10 | CC(C)(C)c1nc(C2CCC2)cc(N2CCN(CC[C@H]3CC[C@H](NC(=O)[C@H]4CC[C@H](O)CC4)CC3)CC2)n1 [Compound 1, trans-N-[trans-4-[2-[4-(2-tert-butyl-6-cyclobutyl-pyrimidin-4-yl)piperazin-1-yl]ethyl]cyclohexyl]-4-hydroxy-cyclohexanecarboxamide] | +++ (+++ >50) | 20 to 120
11 | CC(C)(C)c1nc(N2CCN(CC[C@H]3CC[C@@H](NC(=O)[C@H]4CC[C@H](O)CC4)CC3)CC2)cc(C2(C)CC2)n1 [Compound 28, Trans-N-[cis-4-[2-[4-[2-tert-butyl-6-(1-methylcyclopropyl)pyrimidin-4-yl]piperazin-1-yl]ethyl]cyclohexyl]-4-hydroxy-cyclohexanecarboxamide] | ++ (++ >20) | 20 to 120
12 | COCCc1cc(N2CCN(CC[C@H]3CC[C@@H](NC(=O)[C@H]4CC[C@@H](O)CC4)CC3)CC2)nc(C(C)(C)C)n1 [Compound 5, Cis-N-[cis-4-[2-[4-[2-tert-butyl-6-(2-methoxyethyl)pyrimidin-4-yl]piperazin-1-yl]ethyl]cyclohexyl]-4-hydroxy-cyclohexanecarboxamide] | ++ (++ >20) | > 120
13 | CC(C)c1cc(N2CCN(CCC3CCC(NC(=O)C4CCC(O)CC4)CC3)CC2)nc(C(C)(C)C)n1 (stereo not drawn) [Compound 31, N-[4-[2-[4-(2-tert-butyl-6-isopropyl-pyrimidin-4-yl)piperazin-1-yl]ethyl]cyclohexyl]-4-hydroxy-cyclohexanecarboxamide] | ++ (++ >20) | 20 to 120
14 | CC(C)(C)c1nc(C2CCC2)cc(N2CCN(CC[C@H]3CC[C@@H](NC(=O)[C@H]4CC[C@H](O)CC4)CC3)CC2)n1 [Compound 6, trans-N-[cis-4-[2-[4-(2-tert-butyl-6-cyclobutyl-pyrimidin-4-yl)piperazin-1-yl]ethyl]cyclohexyl]-4-hydroxy-cyclohexanecarboxamide] | +++ (+++ >50) | 20 to 120
15 | CC(C)(C)c1nc(C2CCC2)cc(N2CCN(CC[C@H]3CC[C@H](NC(=O)[C@H]4CC[C@@H](O)CC4)CC3)CC2)n1.O=C(O)C(F)(F)F [Compound 14, Cis-N-[trans-4-[2-[4-(2-tert-butyl-6-cyclobutyl-pyrimidin-4-yl)piperazin-1-yl]ethyl]cyclohexyl]-4-hydroxy-cyclohexanecarboxamide; 2,2,2-trifluoroacetic acid] | ++ (++ >20) | > 120
16 | COCCc1cc(N2CCN(CC[C@H]3CC[C@H](NC(=O)[C@H]4CC[C@H](O)CC4)CC3)C[C@H]2C)nc(C(C)(C)C)n1 [Compound 34, trans-N-[trans-4-[2-[(3R)-4-[2-tert-butyl-6-(2-methoxyethyl)pyrimidin-4-yl]-3-methyl-piperazin-1-yl]ethyl]cyclohexyl]-4-hydroxy-cyclohexanecarboxamide] | +++ (+++ >50) | 20 to 120
17 | COCc1cc(N2CCN(CC[C@H]3CC[C@H](NC(=O)[C@H]4C[C@@H](O)C4)CC3)CC2)nc(C(C)(C)C)n1 [Compound 40, cis-N-[trans-4-[2-[4-[2-tert-butyl-6-(methoxymethyl)pyrimidin-4-yl]piperazin-1-yl]ethyl]cyclohexyl]-3-hydroxy-cyclobutanecarboxamide] | – | 20 to 120
